According to patent publication US20220073521A1, “PYRIMIDINE AND FIVE-MEMBERED NITROGEN HETEROCYCLE DERIVATIVE, PREPARATION METHOD THEREFOR, AND MEDICAL USES THEREOF” (Tuojie Biotech (Shanghai) Co., Ltd., priority 2018, published 2022):
Residue numbers refer to the chain shown, from its start. Where two headings read alike, the source gives them in different places.

Assays:
SHP2 E76K = biological target: T1, SHP2 E76K (Homo sapiens, UniProt Q06124, E76K); experiment: In vitro activity on SHP2 mutant E76K phosphatase; assay type: biochemical
T1 construct: recombinantly expressed full-length SHP2 (aa 1-593) with E69K and E76K; purchased Novoprotein Scientific Inc
T1 sequence (Q06124 1-593 E76K): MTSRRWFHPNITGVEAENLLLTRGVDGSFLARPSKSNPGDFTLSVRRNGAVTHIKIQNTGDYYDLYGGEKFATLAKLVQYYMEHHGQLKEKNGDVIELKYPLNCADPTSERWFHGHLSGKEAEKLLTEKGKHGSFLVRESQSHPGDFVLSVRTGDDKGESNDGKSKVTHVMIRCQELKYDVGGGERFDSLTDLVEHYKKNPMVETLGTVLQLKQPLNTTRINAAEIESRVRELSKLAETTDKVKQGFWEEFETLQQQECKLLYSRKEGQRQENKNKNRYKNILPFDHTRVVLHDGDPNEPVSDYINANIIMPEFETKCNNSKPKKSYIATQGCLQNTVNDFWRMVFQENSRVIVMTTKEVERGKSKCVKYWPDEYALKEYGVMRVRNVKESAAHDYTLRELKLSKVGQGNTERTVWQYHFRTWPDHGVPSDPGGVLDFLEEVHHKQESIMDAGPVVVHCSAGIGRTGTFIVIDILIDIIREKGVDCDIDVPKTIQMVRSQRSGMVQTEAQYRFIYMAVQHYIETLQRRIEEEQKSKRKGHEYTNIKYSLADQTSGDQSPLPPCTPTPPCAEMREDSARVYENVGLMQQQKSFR
Description: (§1) The reaction solution was shaked (350 rpm) at room temperature for 30 minutes. The reaction substrate DiFMUP with a final concentration of 30 μM was added, and the reaction solution was reacted at room temperature for 30 minutes. The phosphatase reaction was stopped by adding 5 μL of stop solution (60 mM HEPES, pH 7.5, 0.2% SDS).

KYSE-520 cells = experiment: KYSE-520 cell proliferation experiment (CellTiter-Glo, 7 days); assay type: cell-based; settings: Homo sapiens
p-ERK in KYSE-520 cells = experiment: Determination of p-ERK in KYSE-520 cells (HTRF); assay type: cell-based; settings: Homo sapiens
SHP2 E69K = biological target: T2, SHP2 E69K (Homo sapiens, UniProt Q06124, E69K); experiment: In vitro activity on SHP2 mutant E69K phosphatase; assay type: biochemical
T2 construct: recombinantly expressed full-length SHP2 (aa 1-593) with E69K and E76K; purchased Novoprotein Scientific Inc
T2 sequence (Q06124 1-593 E69K): T1 sequence (Q06124 1-593 E76K) with E69K, K76E
Description: as §1

[1] = biological target: T3, SHP2 wild-type phosphatase (recombinantly expressed full-length SHP2, aa 1-593) (Homo sapiens, UniProt Q06124); experiment: In vitro activity on SHP2 wild-type phosphatase (DiFMUP fluorescence); settings: wild-type full-length SHP2, activated polypeptide IRS1 0.5 nM, DiFMUP 30 μM;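 also: enzyme preincubated at room temperature, then DiFMUP reaction run at room temperature and halted with SDS, potency derived from a logistic curve fit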
T3 sequence (Q06124 1-593): T1 sequence (Q06124 1-593 E76K) with K76E
Description: 0.2 nM recombinantly expressed full-length SHP2 (aa 1-593), 0.5 nM activated polypeptide IRS1 with double phosphorylation sites (sequence: H2N-LN(pY)IDLDLY(dPEG8)LST(pY)ASINFQK-amide) and a series of concentrations of the test compound (final concentrations were 1 μM, 0.3 μM, 0.1 μM, 0.03 μM, 0.01 μM, 0.003 μM, 0.001 μM, 0.0003 μM, 0.0001 μM, 0.00003 μM) were added to the phosphatase reaction solution (60 mM HEPES, pH 7.5 0.005% Brij-35, 75 mM NaCl, 75 mM KCl, 1 mM EDTA, 5 mM DTT). The reaction solution was shaked (350 rpm) at room temperature for 30 minutes. The reaction substrate DiFMUP with a final concentration of 30 μM was added, and the reaction solution was reacted at room temperature for 30 minutes. The phosphatase reaction was stopped by adding 5 μL of stop solution (60 mM HEPES, pH 7.5, 0.2% SDS). Ex358 nm/Em455 fluorescence value was read on the fluorescence plate reader MD SpectraMax.
The IC50 value of the compound was calculated using the four-parameter logit method. In the following formula, x represents the logarithmic form of the compound concentration, and F(x) represents the effect value (the inhibition rate of cell proliferation under the given concentration condition): F(x)=((A−D)/(1+((x/C)^B)))+D. A, B, C and D are four parameters. Different concentrations correspond to different inhibition rates, based on which an inverse curve was plotted, and the IC50 of the inhibitor was calculated from the curve. The IC50 of the compound was calculated with Primer premier 6.0.

IC50 (SHP2 E76K; activated polypeptide IRS1 added, read-out: SHP2 E76K the activated polypeptide was added IC50) [nM]	IC50 (SHP2 E76K; activated polypeptide not added, read-out: SHP2 E76K the activated polypeptide was not added IC50) [nM]	IC50 (p-ERK in KYSE-520 cells; KYSE-520, 2 h) [nM]	IC50 (SHP2 E69K; activated polypeptide IRS1 added, read-out: SHP2 E69K the activated polypeptide was added IC50) [nM]	IC50 (SHP2 E69K; activated polypeptide not added, read-out: SHP2 E69K the activated polypeptide was not added IC50) [nM]	Compound	IC50 (SHP2 E76K; SHP2 E76K the activated polypeptide was added IC50, activated polypeptide IRS1 added) [nM]	IC50 (SHP2 E76K; SHP2 E76K the activated polypeptide was not added IC50, activated polypeptide not added) [nM]	IC50 (KYSE-520 cells) [nM]	IC50 (p-ERK in KYSE-520 cells; 2 hours) [nM]	IC50 (SHP2 E69K; SHP2 E69K the activated polypeptide was added IC50, activated polypeptide IRS1 added) [nM]	IC50 (SHP2 E69K; SHP2 E69K the activated polypeptide was not added IC50, activated polypeptide not added) [nM]	IC50 [1] [nM]
					CNc1nccc(Sc2c(C)nc(N3CCC4(CC3)Cc3ncccc3[C@H]4N)n3ccnc23)c1Cl [Example 41, (S)-1′-(8-((3-Chloro-2-(methylamino)pyridin-4-yl)thio)-7-methylimidazo[1,2-c]pyrimidin-5-yl)-5,7-dihydrospiro[cyclopenta[b]pyridine-6,4′-piperidin]-5-amine]	134	5.4	58.3	14	8.5	0.91	2.1
78	4.2	4.8	7.1	0.78	CNc1nccc(Sc2cnc(N3CCC4(CC3)Cc3ncccc3[C@H]4N)n3ccnc23)c1Cl [Example 43, (S)-1′-(8-((3-Chloro-2-(methylamino)pyridin-4-yl)thio)imidazo[1,2-c]pyrimidin-5-yl)-5,7-dihydrospiro[cyclopenta[b]pyridine-6,4′-piperidin]-5-amine]			30.4				2
